Experimental data taken from PubChem BioAssay AID1996.
≈ marks a conversion by molar mass, not a printed value.

Details: buffer; pH 7.4; 200.0 µM

Row | SMILES | solubility kinetic
1 | COc1ccccc1C(=O)OCCN=C1NS(=O)(=O)c2ccccc21 | > 54.1 µg/mL
2 | CCOC(=O)c1nc(NCc2ccccc2)sc1C | 9.5 µg/mL (≈ 34.4 µM)
3 | COc1ccc(CNC(=O)C(Cc2ccccc2)n2cccc2)cc1 (stereo not given) | 7.8 µg/mL (≈ 23.3 µM)
4 | COc1ccc(C(=O)Nc2ccccc2C(=O)Nc2ccccn2)cc1 | < 0.2 µg/mL
5 | N#Cc1nc(-c2cccc(Cl)c2)oc1N1CCC(C(N)=O)CC1 | 1.8 µg/mL (≈ 5.44 µM)
6 | CNC(=O)c1csc(-c2cccs2)n1 | 33.3 µg/mL (≈ 148 µM)
7 | COc1cc2c(cc1NC(=O)CCC(=O)O)oc1ccccc12 | 46.7 µg/mL (≈ 149 µM)
8 | Cc1ccc(C(=O)NCC(=O)NC2CCCCCC2)cc1 | 21.1 µg/mL (≈ 73.2 µM)
9 | Brc1nc(-c2ccccc2)nc(-c2ccccc2)c1Br | < 0.4 µg/mL
10 | Cc1ccccc1C(=O)NC1CCCN(Cc2ccccc2F)C1 (stereo not given) | 43.2 µg/mL (≈ 132 µM)
11 | O=[N+]([O-])c1cccc(-c2ccc(CN3CCCCC3)o2)c1 | 30.5 µg/mL (≈ 107 µM)
12 | CC(=O)Nc1ccc(Nc2nc(C)cc(C)n2)cc1 | > 38.4 µg/mL
13 | COc1ccc2oc(=O)cc(CN3CCOCC3)c2c1 | 39.5 µg/mL (≈ 143 µM)
14 | CC(CC(=O)Nc1cccnc1)c1ccccc1 (stereo not given) | > 36 µg/mL
15 | Cc1ccc(NC(=S)Nc2ccc(OC(F)F)c(Cl)c2)cc1F | 3.5 µg/mL (≈ 9.7 µM)
16 | O=C(c1ccc2nccnc2c1)N1CCN(c2ccccc2)CC1 | > 47.8 µg/mL
17 | O=S(=O)(c1ccccc1)N1CCN(c2ccccc2)CC1 | 0.4 µg/mL (≈ 1.32 µM)
18 | CC(=O)c1c(C)[nH]c(C(=O)NCc2ccccc2F)c1C | 41.6 µg/mL (≈ 144 µM)
19 | Cc1ccc(NC(=O)C2=C(C(=O)O)CCCC2)cc1Br | 33.3 µg/mL (≈ 98.5 µM)
20 | Cc1cc(C)nc(NC(=O)Cc2ccc(Br)cc2)n1 | > 48 µg/mL
21 | Cc1cc(C)cc(OC(C)C(=O)NCCCn2ccnc2)c1 (stereo not given) | 33.4 µg/mL (≈ 111 µM)
22 | COc1ccc(C(=O)OCC(=O)NC2CCCC2)c(OC)c1 | 44.8 µg/mL (≈ 146 µM)
23 | Cl.c1ccc(SCCOCCN2CCOCC2)cc1 | 43.4 µg/mL
24 | CCOC(=O)c1sc(=S)n(C)c1NC(=O)c1ccc(C(C)(C)C)cc1 | 3.4 µg/mL (≈ 8.98 µM)

Row | SMILES | solubility kinetic
25 | CCOc1ccc(OCCC(=O)OCC(=O)NC2CC2)cc1 | > 46.1 µg/mL
26 | Cc1ccc(NC(=S)NC(=O)C2CCCC2)cc1C | 0.5 µg/mL (≈ 1.81 µM)
27 | C[C@H]1O[C@@H](n2cc(F)c(=O)[nH]c2=O)[C@H](O)[C@@H]1O | > 36.9 µg/mL
28 | Cn1c(Nc2ccc(Cl)cc2)cc(=O)n(C)c1=O | > 39.9 µg/mL
29 | CC(=O)c1c(O)c2ccccc2n(Cc2ccccc2)c1=O | 11.8 µg/mL (≈ 40.2 µM)
30 | COc1cccc(OC)c1C(=O)Nc1cccnc1 | > 38.7 µg/mL
31 | O=c1[nH]c2ccccc2nc1-c1c[nH]c2ccccc12 | 0.2 µg/mL (≈ 0.765 µM)
32 | O=C(O)c1ccc(Nc2ccc([N+](=O)[O-])c3nonc23)cc1 | > 45 µg/mL
33 | O=C(CSc1nc2ncc(Cl)cc2[nH]1)c1ccc2c(c1)OCO2 | 1.8 µg/mL (≈ 5.18 µM)
34 | Cc1c(C)n(CCCN(C)C)c2ncnc(Nc3ccc(F)cc3)c12 | 48.7 µg/mL (≈ 143 µM)
35 | COc1ccc(S(=O)(=O)NCCc2ccccc2)cc1OC | 39.9 µg/mL (≈ 124 µM)
36 | COc1ccccc1CC(=O)Nc1ccc2c(C)cc(=O)oc2c1 | 3.6 µg/mL (≈ 11.1 µM)
37 | CCc1sc(C(=O)Nc2ccccc2N2CCOCC2)cc1C | 2.5 µg/mL (≈ 7.57 µM)
38 | COc1ccccc1/C=C/C(=O)Nc1cccnc1Cl | 2.7 µg/mL (≈ 9.35 µM)
39 | Cc1ccc(S(=O)(=O)n2cnc(C)c2)cc1 | > 35.4 µg/mL
40 | Nc1ccccc1S(=O)(=O)NCCCCc1ccccc1 | 28.7 µg/mL (≈ 94.3 µM)
41 | CN1CCC(N(C)C(=S)NCCc2ccccc2)CC1 | > 43.7 µg/mL
42 | O=c1[nH]c(Sc2ccc([N+](=O)[O-])cc2[N+](=O)[O-])nc2ccccc12 | 26.3 µg/mL (≈ 76.4 µM)
43 | CCOC(=O)Nc1ccc2nc3n(c(=O)c2c1)CCCCC3 | 9.1 µg/mL (≈ 30.2 µM)
44 | CC1(C)CC2CC(C)(CN2C(=O)COC(=O)c2cccc([N+](=O)[O-])c2)C1 (stereo not given) | > 54.1 µg/mL
45 | COc1ccc(C(=O)NCC(=O)OCC(=O)N2CCc3ccccc32)cc1 | 23 µg/mL (≈ 62.4 µM)
46 | CCOC(=O)N1CCN(C(=O)c2cc3ccccc3o2)CC1 | > 45.3 µg/mL
47 | COc1ccc(C2C(C#N)=C(N)Oc3cc(O)ccc32)cc1Cl (stereo not given) | 43.5 µg/mL (≈ 132 µM)
48 | C=CCNC(=S)N(C1CCCCC1)C1CCCCC1 | 21 µg/mL (≈ 74.9 µM)

Row | SMILES | solubility kinetic
49 | CN1CCC2(CC1)NC(=O)c1ccccc1N2.Cl | > 40.2 µg/mL
50 | CCc1ccc(NC(=O)Cn2cnc3c(=O)n(C)c(=O)n(C)c32)cc1 | 18.6 µg/mL (≈ 54.5 µM)
51 | COc1ccc(CNC(=S)Nc2ccccc2Cl)cc1 | 12 µg/mL (≈ 39.1 µM)
52 | O=C(COc1ccccc1Cl)N1CCc2ccccc21 | 1.1 µg/mL (≈ 3.82 µM)
53 | O=C(O)CN1C(=O)/C(=C/c2cccc(Cl)c2)Oc2ccccc21 | 30.8 µg/mL (≈ 93.4 µM)
54 | O=C(NCC1CCCO1)C1CC(=O)N(c2ccccc2)C1 (stereo not given) | > 43.3 µg/mL
55 | O=S(=O)(c1ccc(Br)cc1)N1CCCC1 | 41.5 µg/mL (≈ 143 µM)
56 | O=C(O)c1ccccc1N1C(=O)c2cccc3cccc(c23)C1=O | > 47.6 µg/mL
57 | O=C1OC(CO)CN1Cc1ccccc1 (stereo not given) | 30.3 µg/mL (≈ 146 µM)
58 | COc1ccc(Nc2nc(N)c(C(=O)c3ccc(OC)cc3)s2)cc1 | 1.4 µg/mL (≈ 3.94 µM)
59 | CN(CC(=O)Nc1ccc(OC(F)(F)F)cc1)C(=O)Cc1cccs1 | 9.3 µg/mL (≈ 25 µM)
60 | Cc1ccccc1CSCCC(=O)NCCc1ccccc1 | 9.8 µg/mL (≈ 31.3 µM)
61 | CN=CC1=C(O)C(C(=O)OC)C(C)(C)CC1=O (stereo not given) | > 35.9 µg/mL
62 | Cc1nn(C)c(C)c1NC(=O)COc1ccc(F)cc1Br | > 53.4 µg/mL
63 | Cc1ccc(C)c(S(=O)(=O)c2c[nH]c(=S)[nH]c2=O)c1 | 36.6 µg/mL (≈ 123 µM)
64 | CCc1nc2cc(Cl)c(Cl)cc2nc1CC | < 0.3 µg/mL
65 | Cn1c2ccccc2n2c(=O)cc(-c3ccccc3)c(C#N)c12 | < 0.2 µg/mL
66 | CC(=O)c1cccc(Oc2ncccn2)c1 | > 32.1 µg/mL
67 | Br.CN(/N=C/c1ccncc1)C1=NCCN1 | > 42.6 µg/mL
68 | Cn1c(SCc2cccnc2)nc2c(c1=O)SCC2 | > 43.7 µg/mL
69 | C=C(C)Cn1cnc2c(oc3nc4c(cc32)CCCC4)c1=O | 2.5 µg/mL (≈ 8.46 µM)
70 | CCc1cccc(NC(=O)c2cc(OC)c(OC)c(OC)c2)c1 | 34.2 µg/mL (≈ 108 µM)
71 | COc1ccccc1C(=O)Nc1ccc2c(C)cc(=O)oc2c1 | 1.3 µg/mL (≈ 4.2 µM)
72 | CC1CN(S(=O)(=O)c2cc(C(=O)NC(C)c3cccnc3)ccc2Cl)CC(C)O1 (stereo not given) | > 65.7 µg/mL

Row | SMILES | solubility kinetic
73 | O=C(CN1CCN(c2ccc(O)cc2)CC1)N1CCc2ccccc21 | 5 µg/mL (≈ 14.8 µM)
74 | CN(CCc1ccccn1)C(=S)Nc1ccc(Cl)cc1Cl | 46.2 µg/mL (≈ 136 µM)
75 | CCOc1ccc(NC(=O)Nc2nc(SCC)ns2)cc1 | 0.8 µg/mL (≈ 2.47 µM)
76 | COc1ccc(C(=O)c2nc3ccccc3n2C(C)C)cc1 | 22.3 µg/mL (≈ 75.8 µM)
77 | Cc1cc(OCC(=O)N2CCC(C(=O)O)CC2)c2c(C)cc(=O)oc2c1 | > 53.9 µg/mL
78 | CCC(=O)N1CCCC(C(=O)c2ccc(-c3ccccc3)cc2)C1 (stereo not given) | 29.9 µg/mL (≈ 93 µM)
79 | Cc1ccc2cccc(OCC(=O)N3CCc4ccccc43)c2n1 | < 0.3 µg/mL
80 | Cc1ccc(C2=NCC(=O)Nc3ccc(Br)cc32)cc1 | 42.1 µg/mL (≈ 128 µM)
81 | CC(=NCCCn1ccnc1)c1c(O)n(-c2ccccc2)c(=O)[nH]c1=O | > 53 µg/mL
82 | COc1ccc([N+](=O)[O-])cc1NS(=O)(=O)c1cccc(C(=O)NCCCN2CCCC2=O)c1 | > 71.5 µg/mL
83 | COc1ccc2c(c1)C1=C(CC2)C(c2ccc(C)cc2)NC(=S)N1 (stereo not given) | 10.5 µg/mL (≈ 31.2 µM)
84 | CC1CN(C2=CC(=O)CCC2)CC(C)O1 (stereo not given) | > 31.4 µg/mL
85 | Cc1ccccc1OCC(=O)NC1CCCCCCC1 | 4.2 µg/mL (≈ 15.3 µM)
86 | O=C(COC(=O)c1cc(S(=O)(=O)N2CCCC2)ccc1O)Nc1ccccc1Br | 9.6 µg/mL (≈ 19.9 µM)
87 | Cc1cc(C(=O)OCC(=O)Nc2ccccc2Br)c(C)o1 | 4.4 µg/mL (≈ 12.5 µM)
88 | Cc1ccc(NC(=O)N2CCCC2C(=O)NCC2CCCO2)cc1 (stereo not given) | > 49.7 µg/mL
89 | CSc1ccc(S(=O)(=O)Nc2ccc3c(c2)NC(=O)CC3)cc1 | 8 µg/mL (≈ 23 µM)
90 | COc1ccc(NC(=O)COC(=O)C2CCN(C(=O)c3ccc(Cl)cc3)CC2)c([N+](=O)[O-])c1 | 22.4 µg/mL (≈ 47.1 µM)
91 | Cc1cccc2nc(-c3ccco3)c(Nc3ccccc3)n12 | 2.9 µg/mL (≈ 10 µM)
92 | CCOC(=O)c1ccc(NC(=O)NCc2ccccc2OC)cc1 | 2.4 µg/mL (≈ 7.31 µM)
93 | O=C(OCc1ccc(Cl)c(Cl)c1)c1cccnc1Cl | < 0.7 µg/mL
94 | CC(=O)NCCC(=O)Nc1nc(-c2c[nH]c3ccccc23)cs1 | 42.9 µg/mL (≈ 131 µM)
95 | O=C(O)CC[N+](=O)[O-] | > 17.9 µg/mL
96 | CN(C)C(=O)CSc1ccc(S(=O)(=O)N2CCCC2)cn1 | > 49.4 µg/mL

Row | SMILES | solubility kinetic
97 | CCC(NC(=S)NCc1ccc(F)cc1)c1ccccc1 (stereo not given) | 3.4 µg/mL (≈ 11.2 µM)
98 | CCOc1ccc(/C=C/c2[nH]c(=O)[nH]c(=O)c2[N+](=O)[O-])cc1 | 13.2 µg/mL (≈ 43.5 µM)
99 | CC(NS(=O)(=O)c1ccccc1)C1CC2CCC1C2 (stereo not given) | 6 µg/mL (≈ 21.5 µM)
100 | CNc1ccc([N+](=O)[O-])cc1-c1nc2ccccc2[nH]c1=O | 0.2 µg/mL (≈ 0.675 µM)
101 | O=C(c1ccc2nc(Cc3ccccc3F)oc2c1)N1CCCC1 | 33.5 µg/mL (≈ 103 µM)
102 | Cc1ccc2c(C(=O)CN3CCC(C(N)=O)CC3)c(C)[nH]c2c1 | > 47 µg/mL
103 | COc1ccccc1N1CCN(S(=O)(=O)c2ccc(Cl)cc2)CC1 | 4 µg/mL (≈ 10.9 µM)
104 | NC(=O)C1CCN(C(=O)/C=C/c2cccc(Br)c2)CC1 | 46.9 µg/mL (≈ 139 µM)
105 | Cc1ccc(/C=C2\C(=O)NC(=S)N(c3cccc(F)c3)C2=O)o1 | 43.1 µg/mL (≈ 130 µM)
106 | CSc1ccccc1C(=O)NCCOc1ccccc1C | > 45.2 µg/mL
107 | COC(=O)Nc1nc2ccc(C(=O)c3cccs3)cc2[nH]1 | 0.3 µg/mL (≈ 0.996 µM)
108 | CC1CCN(C(=O)COC(=O)c2cc3ccccc3oc2=O)CC1 | > 49.4 µg/mL
109 | COC(=O)/C(C#N)=C/c1ccc(N2CCOCC2)c([N+](=O)[O-])c1 | 11 µg/mL (≈ 34.7 µM)
110 | CC(=O)c1c(C(=O)O)c2ccccc2[nH]c1=O | 34 µg/mL (≈ 147 µM)
111 | C#CCOc1ccccc1C(N)=O | 25.3 µg/mL (≈ 144 µM)
112 | COc1cc(CCC(C)NCc2ccccc2)ccc1O (stereo not given) | > 42.8 µg/mL
113 | O=C(c1ccccc1)c1cc2cc(Cl)ccc2[nH]1 | < 0.5 µg/mL
114 | CCN(CC)c1cccc(OC(=O)c2cccnc2Cl)c1 | 6.8 µg/mL (≈ 22.3 µM)
115 | O=C(Nc1nc2ccc(Cl)cc2s1)C1CC1 | 4.8 µg/mL (≈ 19 µM)
116 | O=C(COc1ncnc2ccccc12)Nc1cccc([N+](=O)[O-])c1 | 15.1 µg/mL (≈ 46.6 µM)
117 | CC(C)(C)c1ccc(NC(=O)Nc2ccc3ccccc3n2)cc1 | < 0.2 µg/mL
118 | CCc1c(C)nc(N)nc1Cl | 24.1 µg/mL (≈ 140 µM)
119 | Cc1cccc(Nc2c([N+](=O)[O-])ccc3nonc23)c1 | < 0.1 µg/mL
120 | CCC(C(=O)N/N=C(\C)c1cccnc1)c1ccccc1 (stereo not given) | > 42.2 µg/mL
